Test results: US20260022142A1, “MACROCYCLIC IMMUNOMODULATORS” (Bristol-Myers Squibb Company, priority 2022, published 2026)
Numbered stars: 1 amine (or outer) side, 2 acyl side, 3 side chain; on linkers, the order of the positions; unused ones are H or OH. Bridge positions count the residues as written; N and C are the ends. Square brackets hold non-standard residues; d marks the D form. Peptide text beside a SMILES is read from it. * marks the point of attachment. ξ: configuration not given here. Phe(4-COOH) = N[C@@H](Cc1ccc(C(=O)O)cc1)C(=O)O; Bip = N[C@@H](Cc1ccc(-c2ccccc2)cc1)C(=O)O; NH(CH2)14COOH = O=C(O)CCCCCCCCCCCCCCN*; Phe(3-F) = N[C@@H](Cc1cccc(F)c1)C(=O)O; Phe(3-Me) = Cc1cccc(C[C@H](N)C(=O)O)c1; X5 = CC(C)(CCN)[C@H](N[*:1])C(=O)[*:2]; βAsp = O=C(O)[C@H](CC(=O)[*:2])N[*:1]; Val(3-OH) = CC(C)(O)[C@H](N)C(=O)O; hArg = N=C(N)NCCCC[C@H](N)C(=O)O; 4Pal = N[C@@H](Cc1ccncc1)C(=O)O; Cha = N[C@@H](CC1CCCCC1)C(=O)O; Cit = NC(=O)NCCC[C@H](N)C(=O)O; Thr(3ξ) = CC(O)[C@H](N)C(=O)O; Carboxymethyl = O=C(O)C*; Orn = NCCC[C@H](N)C(=O)O; Aun = NCCCCCCCCCCC(=O)O; Dab = NCC[C@H](N)C(=O)O; Dap = NC[C@H](N)C(=O)O; AEEA = NCCOCCOCC(=O)O

Molecular target: T1, PD-1/PD-L1 interaction (PE-labeled human PD-L1-Ig binding to Jurkat cell line over-expressing human PD-1) (Homo sapiens, UniProt Q15116)
T1 construct: expressed in transfected cells; host or cells: Jurkat
T1 sequence (Q15116 25-288): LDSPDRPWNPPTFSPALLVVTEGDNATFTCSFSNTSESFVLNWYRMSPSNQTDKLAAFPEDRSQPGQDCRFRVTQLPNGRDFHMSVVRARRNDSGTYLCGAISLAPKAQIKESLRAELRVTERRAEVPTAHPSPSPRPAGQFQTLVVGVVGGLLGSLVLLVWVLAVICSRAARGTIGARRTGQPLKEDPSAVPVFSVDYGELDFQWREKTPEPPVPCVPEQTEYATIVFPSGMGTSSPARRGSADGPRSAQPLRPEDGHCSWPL
Experiment: Jurkat-PD-1 Cell Binding High-Content Screening Assay (CBA)
Assay type: cell-based
Details: Jurkat cell line over-expressing human PD-1; PE-labeled PD-L1-Ig 20 nM final; read-out: Jurkat hPD1-PDL1 IC50
Method in brief: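 Read-out is high-content imaging of cell-bound phycoerythrin-tagged PD-L1-Ig on fixed, Hoechst-counterstained Jurkat cells that over-express human PD-1. Compound exposure lasts 2 h at 37° C before the labeled ligand (20 nM final) is added for a further hour.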

Structure (SMILES)	IC50 [nM]
Cc1cccc(C[C@@H]2NC(=O)[C@H](CC(=O)O)NC(=O)[C@H](Cc3ccc(C(=O)O)cc3)NC(=O)[C@H](C)NC(=O)CSC[C@@H](C(=O)N[C@@H](CCN)C(=O)NCCOCCOCC(=O)N[C@@H](CCC(=O)O)C(=O)N[C@@H](CC(=O)NCCOCCOCC(=O)NCCCCCCCCCCCCCCC(=O)O)C(=O)O)NC(=O)[C@H](Cc3cnc[nH]3)NC(=O)[C@H](C(C)(C)O)NC(=O)[C@H](CC3CCCCC3)NC(=O)[C@H](CCN)NC(=O)[C@@H](CC(C)C)NC(=O)[C@H](CCCN)NC(=O)[C@H](Cc3ccc(C(=O)O)cc3)NC(=O)[C@H](Cc3ccc(-c4ccccc4)cc3)NC(=O)[C@H](Cc3ccc(C(=O)O)cc3)NC2=O)c1 [Compound 3884] ({CH2CO}-A[Phe(4-COOH)]D[Phe(3-Me)][Phe(4-COOH)][Bip][Phe(4-COOH)][Orn][dL][Dab][Cha][Val(3-OH)]HC[Dab][AEEA]E[βAsp][AEEA]-{NH(CH2)14COOH}; thioether N-14)	147
Cc1cccc(C[C@@H]2NC(=O)[C@H](CC(=O)O)NC(=O)[C@H](Cc3ccc(OCC(=O)O)cc3)NC(=O)[C@H](CCCNC(=N)N)NC(=O)CSC[C@@H](C(=O)N[C@@H](CCCCN)C(=O)NCCCCCCCCCCC(=O)O)NC(=O)[C@H](C(C)O)NC(=O)[C@H](C(C)C)NC(=O)[C@H](CC3CCCCC3)NC(=O)[C@H](CCN)NC(=O)[C@@H](CC(C)C)NC(=O)[C@H](CCCN)NC(=O)[C@H](CCCNC(N)=O)NC(=O)[C@H](Cc3ccc(-c4ccccc4)cc3)NC(=O)[C@H](C(C)C)NC2=O)c1 (stereo partly drawn) [Compound 3468] ({CH2CO}-RY(Carboxymethyl)D[Phe(3-Me)]V[Bip][Cit][Orn][dL][Dab][Cha]V[Thr(3ξ)]CK[Aun]-OH; thioether N-14)	26
Cc1cccc(C[C@@H]2NC(=O)[C@H](CC(=O)O)NC(=O)[C@H](Cc3ccc(OCC(=O)O)cc3)NC(=O)[C@H](CN)NC(=O)CSC[C@@H](C(=O)N[C@@H](CCN)C(=O)NCCCCCCCCCCC(=O)O)NC(=O)[C@H](Cc3ccc(OCC(=O)O)cc3)NC(=O)[C@H](C(C)C)NC(=O)[C@H](CC(C)C)NC(=O)[C@H](CCN)NC(=O)[C@@H](CC(C)C)NC(=O)[C@H](CCCN)NC(=O)[C@H](Cc3ccc(O)cc3)NC(=O)[C@H](Cc3ccc(-c4ccccc4)cc3)NC(=O)[C@H](C(C)C)NC2=O)c1 [Compound 2760] ({CH2CO}-[Dap]Y(Carboxymethyl)D[Phe(3-Me)]V[Bip]Y[Orn][dL][Dab]LVY(Carboxymethyl)C[Dab][Aun]-OH; thioether N-14)	38.1
Cc1cccc(C[C@@H]2NC(=O)[C@H](CC(=O)O)NC(=O)[C@H](Cc3ccc(OCC(=O)O)cc3)NC(=O)[C@H](Cc3ccncc3)NC(=O)CSC[C@@H](C(=O)N[C@@H](CCN)C(=O)NCCCCCCCCCCC(=O)O)NC(=O)[C@H]([C@@H](C)O)NC(=O)[C@H](C(C)C)NC(=O)[C@H](CC3CCCCC3)NC(=O)[C@H](CCN)NC(=O)[C@@H](CC(C)C)NC(=O)[C@H](CCCN)NC(=O)[C@H](CCCNC(N)=O)NC(=O)[C@H](Cc3ccc(-c4ccccc4)cc3)NC(=O)[C@H](C(C)C)NC2=O)c1 [Compound 2831] ({CH2CO}-[4Pal]Y(Carboxymethyl)D[Phe(3-Me)]V[Bip][Cit][Orn][dL][Dab][Cha]VTC[Dab][Aun]-OH; thioether N-14)	43.2
Cc1cccc(C[C@@H]2NC(=O)[C@H](CC(=O)O)NC(=O)[C@H](Cc3ccc(OCC(=O)O)cc3)NC(=O)[C@H](CCCNC(=N)N)NC(=O)CSC[C@@H](C(=O)N[C@H](C(=O)NCCCCCCCCCCC(=O)O)C(C)(C)CCN)NC(=O)[C@H]([C@@H](C)O)NC(=O)[C@H](C(C)C)NC(=O)[C@H](CC3CCCCC3)NC(=O)[C@H](CCN)NC(=O)[C@@H](CC(C)C)NC(=O)[C@H](CCCN)NC(=O)[C@H](Cc3ccc(OCC(=O)O)cc3)NC(=O)[C@H](Cc3ccc(-c4ccccc4)cc3)NC(=O)[C@H](Cc3ccc(O)cc3)NC2=O)c1 [Compound 2116] ({CH2CO}-RY(Carboxymethyl)D[Phe(3-Me)]Y[Bip]Y(Carboxymethyl)[Orn][dL][Dab][Cha]VTC[X5][Aun]-OH; thioether N-14)	53.5
CC(=O)NCCCC[C@@H]1NC(=O)[C@H](C(C)C)NC(=O)[C@H](CC2CCCCC2)NC(=O)[C@H](CCN)NC(=O)[C@@H](CC(C)C)NC(=O)[C@H](CCCN)NC(=O)[C@H](Cc2ccc(O)cc2)NC(=O)[C@H](Cc2ccc(-c3ccccc3)cc2)NC(=O)[C@H](C(C)C)NC(=O)[C@H](Cc2c[nH]c3ccccc23)NC(=O)[C@H](CC(=O)O)NC(=O)[C@H](Cc2ccc(OCC(=O)O)cc2)NC(=O)[C@H](CCCCNC(=N)N)NC(=O)CSC[C@@H](C(=O)N[C@@H](CCN)C(=O)NCCCCCCCCCCC(=O)O)NC1=O [Compound 3409] ({CH2CO}-[hArg]Y(Carboxymethyl)DWV[Bip]Y[Orn][dL][Dab][Cha]VK(Ac)C[Dab][Aun]-OH; thioether N-14)	15.6

Further compounds by falling IC50, results first:

IC50 [nM]	Structure (SMILES)
15.6	CC[C@H](C)[C@@H]1NC(=O)[C@H](Cc2ccc(-c3ccccc3)cc2)NC(=O)[C@H](C(C)C)NC(=O)[C@H](Cc2cccc(C)c2)NC(=O)[C@H](CC(=O)O)NC(=O)[C@H](Cc2ccc(C(=O)O)cc2)NC(=O)[C@H](Cc2ccncc2)NC(=O)CSC[C@@H](C(=O)N[C@@H](CC(=O)O)C(=O)NCCCCCCCCCCC(=O)O)NC(=O)[C@H]([C@@H](C)O)NC(=O)[C@H](C(C)C)NC(=O)[C@H](CC2CCCCC2)NC(=O)[C@H](CCN)NC(=O)[C@@H](CC(C)C)NC(=O)[C@H](CCCN)NC1=O [Compound 1043] ({CH2CO}-[4Pal][Phe(4-COOH)]D[Phe(3-Me)]V[Bip]I[Orn][dL][Dab][Cha]VTCD[Aun]-OH; thioether N-14)
12.9	Cc1cccc(C[C@@H]2NC(=O)[C@H](CC(=O)O)NC(=O)[C@H](Cc3ccc(OCC(=O)O)cc3)NC(=O)[C@H](Cc3ccncc3)NC(=O)CSC[C@@H](C(=O)N[C@@H](CCN)C(=O)NCCCCCCCCCCC(=O)O)NC(=O)[C@H](CO)NC(=O)[C@H](C(C)(C)O)NC(=O)[C@H](CC3CCCCC3)NC(=O)[C@H](CCN)NC(=O)[C@@H](CC(C)C)NC(=O)[C@H](CCCN)NC(=O)[C@H](Cc3ccc(OCC(=O)O)cc3)NC(=O)[C@H](Cc3ccc(-c4ccccc4)cc3)NC(=O)[C@H](Cc3cccc(F)c3)NC2=O)c1 [Compound 2194] ({CH2CO}-[4Pal]Y(Carboxymethyl)D[Phe(3-Me)][Phe(3-F)][Bip]Y(Carboxymethyl)[Orn][dL][Dab][Cha][Val(3-OH)]SC[Dab][Aun]-OH; thioether N-14)
3.4	CC(C)C[C@H]1NC(=O)[C@H](CCCN)NC(=O)[C@H](C(C)C)NC(=O)[C@H](Cc2ccc(-c3ccccc3)cc2)NC(=O)[C@H](C(C)C)NC(=O)[C@H](Cc2c[nH]c3ccccc23)NC(=O)[C@H](CC(=O)O)NC(=O)[C@H](Cc2ccc(OCC(=O)O)cc2)NC(=O)[C@H](C(C)O)NC(=O)CSC[C@@H](C(=O)N[C@@H](CC(N)=O)C(=O)NCCOCCOCC(=O)N[C@@H](CCCN)C(=O)NCCCCCCCCCCC(=O)O)NC(=O)[C@H](C(C)O)NC(=O)[C@H](C(C)C)NC(=O)[C@H](CC2CCCCC2)NC(=O)[C@H](CCN)NC1=O (stereo partly drawn) [Compound 3031] ({CH2CO}-[Thr(3ξ)]Y(Carboxymethyl)DWV[Bip]V[Orn][dL][Dab][Cha]V[Thr(3ξ)]CN[AEEA][Orn][Aun]-OH; thioether N-14)
